Reference: US20080089894A1, “Transplant tolerance by costimulation blockade and T-cell activation-induced apoptosis” (priority 1998, published 2008)
Values joined by “and” are separate entries in the source; they are usually repeats but may differ in a detail not shown here. Equal values may be shown once.

System: BALB/c mouse heart allografts
Experiment: BALB/c mouse heart allograft survival in C3H/He mice
Type: in vivo
Conditions: BALB/c heart allograft in C3H/He host; one value per mouse; checked daily by palpitation; time in days
Protocol: A control group of three C3H/He mice received syngeneic transplants. The treatments were given as follows:
Group 1) Anti-CD40L+CTLA4-Ig
Anti-CD40L: 250 μg/injection i.v. (intravenous) on day 0, i.p. (intraperitoneal) on day +2, +4,
CTLA4-Ig: 200 μg/injection i.p. on day 0, +2, +4, +6.
Anti-CD40L: 250 μg/injection i.v. on day 0, i.p. on day +2, +4,
CTLA4-Ig: 200 μg/injection i.p. on day 0, +2, +4, +6,
Group 3) Anti-CD40L+CTLA4-Ig+RPM
CTLA4-Ig: 200 μg/injection i.p. on day 0, +2, +4, +6
RPM: 0.2 mg/kg/day i.p. on day 0, +1, +2, then every other day to day +14.
RPM: 0.2 mg/kg/day i.p. on day 0, +1, +2, then every other day to day +14. The hosts were checked daily for graft survival by palpitation. In addition, other mice were sacrificed for pathologic examination at various time points.

CO[C@H]1C[C@@H]2CC[C@@H](C)[C@@](O)(O2)C(=O)C(=O)N2CCCC[C@H]2C(=O)O[C@H]([C@H](C)C[C@@H]2CC[C@@H](O)[C@H](OC)C2)CC(=O)[C@H](C)/C=C(\C)[C@@H](O)[C@@H](OC)C(=O)[C@H](C)C[C@H](C)/C=C/C=C/C=C/1C [RPM, rapamycin]
Graft Survival: > 100 (3×) and > 97 and > 89
